One series relates to HIV-1 (IIIB). Put plainly: Antiviral assay in MT-4 cells (HIV MT-4 antiviral assay). Type of series: cell-based. The note with it: Human immunodeficiency virus 1, IIIB, MT4, 120 h, HIV-1 (IIIB) in MT-4 cells, 5 days incubation; read-out: EC50. In short, it runs like this:
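Read-out is CellTiter-Glo chemiluminescence after 5-day culture at 37° C, giving protection of MT-4 cells from HIV-1 IIIB cytopathicity. Compounds tested in 1:3 dilution series in complete RPMI; controls were no drug, mock infection and 5 μM AZT.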

Series [1] can be described thus: Cytotoxicity assay in MT-4 cells. Type of series: cell-based, human. The note with it: human, uninfected MT-4 cells, 5 days incubation; read-out: CC50. The gist of the method: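 For cytotoxicity, uninfected MT-4 cells were incubated with compounds 5 days at 37 °C, with 10 μM puromycin marking base cytotoxicity. Parallel plates used HIV-1 IIIB-infected (1:250 stock dilution) or mock cells with 5 μM AZT and no-drug controls. Read-out: CellTiter-Glo chemiluminescence.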

The next series deals with pLai RLuc reporter virus. As to the kind of experiment: microbe, parasite or virus in culture. Type of series: cell-based, HIV. Conditions: Human immunodeficiency virus 1, 72 h. In short, it runs like this: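 Read-out is Renilla luciferase after 72 h at 37 °C in MT-4 cells infected 2 h beforehand with pLai RLuc reporter virus; compounds diluted 1:3.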
[2] abbreviates: read-out: Antiviral Serum Shift RLuc 50% HS, HS/CCM (RPMI media, 10% FBS, 50% HS, 1% P/S), 72-h incubation.
The mark [3] stands for this setting: read-out: Antiviral Serum Shift RLuc CCM, CCM (RPMI media, 10% FBS, 1% P/S), 72-h incubation.

Like-named read-outs stand apart in the source and are kept apart here.

In general, CC50 refers to the concentration at which the toxic effect on the cells reaches its halfway point.

For `C[C@@H]1CC[C@H]2CN(C1)C(=O)c1c(O)c(=O)c(C(=O)NCc3c(F)cc(F)cc3F)cn12` [Example 137-2, (4R,7S)-12-hydroxy-4-methyl-1,11-dioxo-N-(2,4,6-trifluorobenzyl)-1,4,5,6,7,11-hexahydro-3H-2,7-methanopyrido[1,2-a][1,4]diazonine-10-carboxamide], the EC50 in the series with HIV-1 (IIIB) is 2.02 nM; with pLai RLuc reporter virus (setting [2]), 0.821 nM; in the series on pLai RLuc reporter virus (setting [3]), 0.182 nM. In series [1], the CC50 at 5 days was 20700 nM.
In the case of `O=C(NCc1c(F)cc(F)cc1F)c1cn2c(c(O)c1=O)C(=O)N1CCc3ccc(Cl)cc3[C@H]2C1` [Example 138, (13S)-11-chloro-4-hydroxy-3,5-dioxo-N-(2,4,6-trifluorobenzyl)-3,5,8,13-tetrahydro-7H-6,13-methanobenzo[g]pyrido[1,2-a][1,4]diazonine-2-carboxamide], the EC50 in the series on HIV-1 (IIIB) was 3.17 nM; in the series on pLai RLuc reporter virus (setting [2]), 8.7 nM; with pLai RLuc reporter virus (setting [3]) it was 0.708 nM. Moreover, the 50% cytotoxic concentration (CC50) at 5 days in series [1] turned out to be 5020 nM.
In the case of `O=C(NCc1ccc(F)c(Cl)c1F)c1cn2c(c(O)c1=O)C(=O)N1Cc3cc(F)c(F)cc3C[C@@H]2C1` [Example 139-1, (6R)—N-(3-chloro-2,4-difluorobenzyl)-9,10-difluoro-1-hydroxy-2,14-dioxo-2,7,12,14-tetrahydro-6H-6,13-methanobenzo[f]pyrido[1,2-a][1,4]diazonine-3-carboxamide], the EC50 with HIV-1 (IIIB) came to 14.8 nM; in the series with pLai RLuc reporter virus (setting [2]) it was 84.3 nM; with pLai RLuc reporter virus (setting [3]), 3.93 nM. In addition, the CC50 at 5 days in series [1] is > 50000 nM.
As to `O=C(NCc1ccc(F)cc1F)c1cn2c(c(O)c1=O)C(=O)N1CCc3cc(Cl)ccc3[C@@H]2C1` [Example 140-2, (13R)-10-chloro-N-(2,4-difluorobenzyl)-4-hydroxy-3,5-dioxo-3,5,8,13-tetrahydro-7H-6,13-methanobenzo[g]pyrido[1,2-a][1,4]diazonine-2-carboxamide], the EC50 with HIV-1 (IIIB) was found to be 1.92 nM; in the series on pLai RLuc reporter virus (setting [2]) it was 22.4 nM; with pLai RLuc reporter virus (setting [3]), 0.347 nM. Moreover, in series [1], the 50% cytotoxic concentration (CC50) at 5 days was found to be 5230 nM.
As to `O=C(NCc1c(F)cc(F)cc1F)c1cn2c(c(O)c1=O)C(=O)N1CCN(C(F)(F)F)CC2C1` (stereo not drawn) [Example 141, 12-hydroxy-1,11-dioxo-N-(2,4,6-trifluorobenzyl)-5-(trifluoromethyl)-1,4,5,6,7,11-hexahydro-3H-2,7-methanopyrido[1,2-a][1,4,7]triazonine-10-carboxamide], the figures for the EC50 in the series on HIV-1 (IIIB), with pLai RLuc reporter virus (setting [2]) and with pLai RLuc reporter virus (setting [3]) were > 100 nM, 199 nM and 29.6 nM, respectively. In addition, the CC50 at 5 days in series [1] is > 50000 nM.
For `C[C@@H]1C[C@H]2CN(C(=O)c3c(O)c(=O)c(C(=O)NCc4c(F)cc(F)cc4F)cn32)[C@@H](C)C1` [Example 142-1, (3S,5S,7S)-12-hydroxy-3,5-dimethyl-1,11-dioxo-N-(2,4,6-trifluorobenzyl)-1,4,5,6,7,11-hexahydro-3H-2,7-methanopyrido[1,2-a][1,4]diazonine-10-carboxamide], the EC50 was 1.97 nM in the series on HIV-1 (IIIB), 1.18 nM with pLai RLuc reporter virus (setting [2]) and 0.354 nM in the series on pLai RLuc reporter virus (setting [3]). Also, the 50% cytotoxic concentration (CC50) at 5 days in series [1] amounted to 8420 nM.
Regarding `C[C@H]1C[C@H]2CN(C(=O)c3c(O)c(=O)c(C(=O)NCc4c(F)cc(F)cc4F)cn32)[C@@H](C)C1` [Example 142-2, (3S,5R,7S)-12-hydroxy-3,5-dimethyl-1,11-dioxo-N-(2,4,6-trifluorobenzyl)-1,4,5,6,7,11-hexahydro-3H-2,7-methanopyrido[1,2-a][1,4]diazonine-10-carboxamide], the figures for the EC50 in the series with HIV-1 (IIIB), in the series on pLai RLuc reporter virus (setting [2]) and with pLai RLuc reporter virus (setting [3]) were 1.87 nM, 2.81 nM and 0.363 nM, respectively. Also, in series [1], the CC50 at 5 days came to 13600 nM.
On to `O=C(NCc1cccc(Cl)c1F)c1cn2c(c(O)c1=O)C(=O)N1Cc3cc(F)c(F)cc3C[C@@H]2C1` [Example 143-1, (6R)—N-(3-chloro-2-fluorobenzyl)-9,10-difluoro-1-hydroxy-2,14-dioxo-2,7,12,14-tetrahydro-6H-6,13-methanobenzo[f]pyrido[1,2-a][1,4]diazonine-3-carboxamide], for which the EC50 turned out to be 22.7 nM in the series on HIV-1 (IIIB), 132 nM with pLai RLuc reporter virus (setting [2]) and 4.75 nM with pLai RLuc reporter virus (setting [3]). In series [1], the CC50 at 5 days is > 50000 nM.
As to `C[C@@H]1N2C[C@H](CCC1(C)F)n1cc(C(=O)NCc3c(F)cc(F)cc3F)c(=O)c(O)c1C2=O` (stereo partly drawn) [Example 144-1, (3S,7S)-4-fluoro-12-hydroxy-3,4-dimethyl-1,11-dioxo-N-(2,4,6-trifluorobenzyl)-1,4,5,6,7,11-hexahydro-3H-2,7-methanopyrido[1,2-a][1,4]diazonine-10-carboxamide], the values for the EC50 in the series on HIV-1 (IIIB), in the series with pLai RLuc reporter virus (setting [2]) and with pLai RLuc reporter virus (setting [3]) were 1.65 nM, 2.63 nM and 0.285 nM, respectively. In addition, the CC50 at 5 days in series [1] was 9180 nM.
As for `CC1=CC[C@H]2CN(C(=O)c3c(O)c(=O)c(C(=O)NCc4c(F)cc(F)cc4F)cn32)[C@H]1C` [Example 144-2, (3S,7S)-12-hydroxy-3,4-dimethyl-1,11-dioxo-N-(2,4,6-trifluorobenzyl)-1,6,7,11-tetrahydro-3H-2,7-methanopyrido[1,2-a][1,4]diazonine-10-carboxamide], the EC50 with HIV-1 (IIIB) stood at 1.98 nM; with pLai RLuc reporter virus (setting [2]), 4.46 nM; with pLai RLuc reporter virus (setting [3]), 0.469 nM. Further, the half-maximal cytotoxic concentration (CC50) at 5 days in series [1] is 13900 nM.
Regarding `O=C(NCc1c(F)cc(F)cc1F)c1cn2c(c(O)c1=O)C(=O)N1Cc3cc(F)ccc3C[C@H]2C1` [Example 145, (6S)-10-fluoro-1-hydroxy-2,14-dioxo-N-(2,4,6-trifluorobenzyl)-2,7,12,14-tetrahydro-6H-6,13-methanobenzo[f]pyrido[1,2-a][1,4]diazonine-3-carboxamide], the EC50 in the series with HIV-1 (IIIB) came out at 0.822 nM; in the series on pLai RLuc reporter virus (setting [2]) it was 0.92 nM; in the series with pLai RLuc reporter virus (setting [3]) it was 0.218 nM. Moreover, the CC50 at 5 days in series [1] came out at 8850 nM.
On to `O=C(NCc1ccc(F)cc1F)c1cn2c(c(O)c1=O)C(=O)N1Cc3cc(F)ccc3C[C@H]2C1` [Example 146, (6S)—N-(2,4-difluorobenzyl)-10-fluoro-1-hydroxy-2,14-dioxo-2,7,12,14-tetrahydro-6H-6,13-methanobenzo[f]pyrido[1,2-a][1,4]diazonine-3-carboxamide], for which the EC50 in the series on HIV-1 (IIIB) turned out to be 1.76 nM; in the series on pLai RLuc reporter virus (setting [2]), 1.12 nM; with pLai RLuc reporter virus (setting [3]), 0.227 nM. In series [1], the half-maximal cytotoxic concentration (CC50) at 5 days is > 50000 nM.
In the same order, the values of `O=C(NCc1c(F)cc(F)cc1F)c1cn2c(c(O)c1=O)C(=O)N1CCc3ccc(F)cc3[C@H]2C1` [Example 147, (13S)-11-fluoro-4-hydroxy-3,5-dioxo-N-(2,4,6-trifluorobenzyl)-3,5,8,13-tetrahydro-7H-6,13-methanobenzo[g]pyrido[1,2-a][1,4]diazonine-2-carboxamide] are 2.14 nM, 3.64 nM, 0.375 nM and 6910 nM.
With `C[C@H]1C=CC[C@H]2CN1C(=O)c1c(O)c(=O)c(C(=O)NCc3c(F)cc(F)cc3F)cn12` [Example 148, (3S,7S)-12-hydroxy-3-methyl-1,11-dioxo-N-(2,4,6-trifluorobenzyl)-1,6,7,11-tetrahydro-3H-2,7-methanopyrido[1,2-a][1,4]diazonine-10-carboxamide], the results for the EC50 in the series with HIV-1 (IIIB), in the series on pLai RLuc reporter virus (setting [2]) and with pLai RLuc reporter virus (setting [3]) were 1.67 nM, 6.34 nM and 0.182 nM, respectively. Besides, in series [1], the CC50 at 5 days stood at 13800 nM.
Consider `C[C@H]1C=CC[C@H]2CN1C(=O)c1c(O)c(=O)c(C(=O)NCc3ccc(F)cc3F)cn12` [Example 149, (3S,7S)—N-(2,4-difluorobenzyl)-12-hydroxy-3-methyl-1,11-dioxo-1,6,7,11-tetrahydro-3H-2,7-methanopyrido[1,2-a][1,4]diazonine-10-carboxamide], for which the results for the EC50 in the series with HIV-1 (IIIB), in the series with pLai RLuc reporter virus (setting [2]) and in the series on pLai RLuc reporter virus (setting [3]) were 1.59 nM, 2.97 nM and 0.255 nM, respectively. Further, in series [1], the half-maximal cytotoxic concentration (CC50) at 5 days came to 10000 nM.
Consider `C[C@@H]1CC[C@H]2C[C@@]23CN1C(=O)c1c(O)c(=O)c(C(=O)NCc2c(F)cc(F)cc2F)cn13` [Example 150, (1aS,4R,11aS)-7-hydroxy-4-methyl-6,8-dioxo-N-(2,4,6-trifluorobenzyl)-1a,2,3,4,6,8-hexahydro-1H-5,11a-methanocyclopropa[h]pyrido[1,2-a][1,4]diazonine-9-carboxamide], for which the EC50 in the series with HIV-1 (IIIB) came to 1.98 nM; with pLai RLuc reporter virus (setting [2]), 4.41 nM; in the series with pLai RLuc reporter virus (setting [3]) it was 0.171 nM. For the same compound, in series [1], the CC50 at 5 days turned out to be 8490 nM.
Turning to `C[C@@H]1CC[C@H](C)[C@@H]2CN1C(=O)c1c(O)c(=O)c(C(=O)NCc3c(F)cc(F)cc3F)cn12` [Example 151-1, (3R,6S,7R)-12-hydroxy-3,6-dimethyl-1,11-dioxo-N-(2,4,6-trifluorobenzyl)-1,4,5,6,7,11-hexahydro-3H-2,7-methanopyrido[1,2-a][1,4]diazonine-10-carboxamide], the results for the EC50 in the series with HIV-1 (IIIB), in the series with pLai RLuc reporter virus (setting [2]) and with pLai RLuc reporter virus (setting [3]) were 4.27 nM, 1140 nM and 0.729 nM, respectively. Moreover, the 50% cytotoxic concentration (CC50) at 5 days in series [1] came out at 14700 nM.
In the case of `C[C@@H]1CC[C@@H](C)N2C[C@H]1n1cc(C(=O)NCc3c(F)cc(F)cc3F)c(=O)c(O)c1C2=O` [Example 151-2, (3R,6R,7S)-12-hydroxy-3,6-dimethyl-1,11-dioxo-N-(2,4,6-trifluorobenzyl)-1,4,5,6,7,11-hexahydro-3H-2,7-methanopyrido[1,2-a][1,4]diazonine-10-carboxamide], the EC50 in the series on HIV-1 (IIIB) is 1.75 nM; with pLai RLuc reporter virus (setting [2]), 7.22 nM; in the series on pLai RLuc reporter virus (setting [3]), 0.44 nM. Further, the 50% cytotoxic concentration (CC50) at 5 days in series [1] stood at 7200 nM.

These data come from patent US12227520B2 (priority 2019, dated 2025).
